Our source for the EC50 and IC50 values is patent US12590062B2, “PD-1/PD-L1 inhibitors” (Gilead Sciences, Inc., priority 2017, dated 2026).

One experiment addresses T1, PD-1/PD-L1 interaction (Homo sapiens, UniProt Q9NZQ7).
T1 construct: expressed in transfected cells; host or cells: CHO cells (aAPC-PD-L1) co-cultured with Jurkat cells overexpressing PD-1 and an NFAT-luciferase reporter
The experiment in a line: PD-1/PD-L1 NFAT reporter co-culture assay. To be noted: Jurkat PD-1 NFAT-luciferase cells co-cultured with aAPC-PD-L1 CHO cells, 6 hrs at 37° C.; read-out: EC50 NFAT Luciferase. The class given is cell-based. An outline of the steps: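 Jurkat cells overexpressing PD-1 with NFAT-driven luciferase were mixed with compound in RPMI 1640/2% FBS and seeded onto overnight-plated CHO aAPC-PD-L1 cells expressing surface anti-CD3 and PD-L1. Co-culture ran 6 h at 37 °C; luminescence read with ONE-Glo; EC50 from four-parameter fit.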

In experiment [1] the target is T2, interaction between the recombinant extracellular domain (ECD) of PD-1 and native cell-bound PD-L1 (Homo sapiens, UniProt Q9NZQ7).
T2 construct: expressed in transfected cells
T2 sequence (Q9NZQ7 19-290): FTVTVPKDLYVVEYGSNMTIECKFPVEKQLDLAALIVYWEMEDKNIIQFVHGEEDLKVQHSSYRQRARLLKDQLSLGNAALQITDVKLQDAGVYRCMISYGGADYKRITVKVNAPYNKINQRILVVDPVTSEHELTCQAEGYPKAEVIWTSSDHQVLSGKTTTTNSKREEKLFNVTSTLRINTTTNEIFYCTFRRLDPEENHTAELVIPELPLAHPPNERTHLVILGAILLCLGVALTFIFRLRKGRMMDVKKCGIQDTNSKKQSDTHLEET
The experiment in a line: CHO/PD-L1 cell capture assay. It counts as cell-based. To be noted: CHO cells overexpressing PD-L1, pre-incubated 1 hr with compound, captured on biotinylated Fc-PD-1 coated plates, 75 min at room temperature. An outline of the steps: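 CHO cells stably overexpressing PD-L1 were pre-incubated 1 hr with compound, then captured 75 min at room temperature on biotinylated Fc-PD-1 ECD bound to streptavidin plates. After glutaraldehyde/Draq5 fixation-staining, captured cells were counted by high-content microscopy; EC50 from four-parameter dose-response fits.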

For the next experiment, the target named is PD-1/PD-L1 (Homo sapiens, UniProt Q9NZQ7). The experiment in a line: PD-1/PD-L1 biochemical protein-protein interaction assay (ALPHA). The class given is binding. The conditions noted are these: 0.3 nM His tagged PD-L1, 2.5 nM biotinylated Fc-PD-1, 60 minutes at 25° C., read-out: IC50 PD-L1-PD-1 Alpha IC50-mono PD-L1-fcP-D1. An outline of the steps:
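Extracellular-domain binding of His-tagged PD-L1 (0.3 nM final) to biotinylated Fc-PD-1 (2.5 nM final) was measured by ALPHA in 25 mM Hepes pH 7.4, 150 mM NaCl, 3.4 mM EDTA, 0.005% Tween 20, 0.01% BSA. After 60 min at 25° C, anti-His acceptor and streptavidin donor beads were added; IC50 from four-parameter fits.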

T1 sequence (Q9NZQ7 19-290): as above
Sequence of PD-1/PD-L1 (Q9NZQ7 19-238 limits assumed): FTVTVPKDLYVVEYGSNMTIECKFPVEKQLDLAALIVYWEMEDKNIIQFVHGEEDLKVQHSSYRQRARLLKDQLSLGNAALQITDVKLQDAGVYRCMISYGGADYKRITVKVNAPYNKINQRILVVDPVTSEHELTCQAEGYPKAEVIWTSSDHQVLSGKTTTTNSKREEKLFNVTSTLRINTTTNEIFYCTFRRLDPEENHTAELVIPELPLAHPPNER

As for `COc1nc(OC2CCc3c(-c4cccc5c4CCC5Oc4ccc(CNC[C@@H](O)CC(=O)O)c(OC)n4)cccc32)ccc1CNC[C@@H](O)CC(=O)O` (stereo partly drawn) [Example 13, (3S,3′S)-4,4′-(((((2,2′,3,3′-tetrahydro-1H,1′H-[4,4′-biindene]-1,1′-diyl)bis(oxy))bis(2-methoxypyridine-6,3-diyl))bis(methylene))bis(azanediyl))bis(3-hydroxybutanoic acid)], the figures for the EC50 (at PD-1/PD-L1 interaction; in experiment [1]) were 4800 nM and 457 nM, respectively. Besides, on PD-1/PD-L1, the IC50 (commonly the concentration needed to halve the response being measured) came out at 2.2 nM.

With `Cc1c(COc2cc(OCc3cncc(C#N)c3)c(CNCCO)cc2Cl)cccc1-c1cccc(COc2cc(OCc3cncc(C#N)c3)c(CNCCO)cc2Cl)c1` [Example 20, 5,5′-((((((2-methyl-[1,1′-biphenyl]-3,3′-diyl)bis(methylene))bis(oxy))bis(4-chloro-6-(((2-hydroxyethyl)amino)methyl)-3,1-phenylene))bis(oxy))bis(methylene))dinicotinonitrile], the EC50 – broadly, the concentration giving half of the maximal effect – at PD-1/PD-L1 interaction worked out at 1200 nM; in experiment [1], 752 nM. In addition, the IC50 on PD-1/PD-L1 was determined as 12.6 nM.

Turning to `COc1nc(OCc2cccc(-c3cccc(COc4nc(OC)c(CNC[C@@H](O)CC(=O)O)cc4Cl)c3C)c2C)c(Cl)cc1CNC[C@@H](O)CC(=O)O` [Example 29, (3S,3′S)-4,4′-((((((2,2′-dimethyl-[1,1′-biphenyl]-3,3′-diyl)bis(methylene))bis(oxy))bis(5-chloro-2-methoxypyridine-6,3-diyl))bis(methylene))bis(azanediyl))bis(3-hydroxybutanoic acid)], the EC50 on PD-1/PD-L1 interaction worked out at 244 nM; in experiment [1], 218 nM. Besides, the IC50 on PD-1/PD-L1 amounted to 0.8 nM.

For `Cc1c(COc2nc(OCc3cncc(C#N)c3)c(CNC[C@H](O)CC(=O)O)cc2Cl)cccc1-c1cccc(COc2nc(OCc3cncc(C#N)c3)c(CNC[C@H](O)CC(=O)O)cc2Cl)c1C` [Example 32, (3R,3′R)-4,4′-((((((2,2′-dimethyl-[1,1′-biphenyl]-3,3′-diyl)bis(methylene))bis(oxy))bis(5-chloro-2-((5-cyanopyridin-3-yl)methoxy)pyridine-6,3-diyl))bis(methylene))bis(azanediyl))bis(3-hydroxybutanoic acid)], the EC50 on PD-1/PD-L1 interaction came to 127 nM; in experiment [1] it was 42.1 nM. Also, on PD-1/PD-L1, the IC50 was determined as 0.3 nM.

On to `Cc1c(COc2nc(OCc3cncc(C#N)c3)c(CNC[C@@H](O)CC(=O)O)cc2Cl)cccc1-c1cccc(COc2nc(OCc3cncc(C#N)c3)c(CNC[C@@H](O)CC(=O)O)cc2Cl)c1C` [Example 34, (3S,3′S)-4,4′-((((((2,2′-dimethyl-[1,1′-biphenyl]-3,3′-diyl)bis(methylene))bis(oxy))bis(5-chloro-2-((5-cyanopyridin-3-yl)methoxy)pyridine-6,3-diyl))bis(methylene))bis(azanediyl))bis(3-hydroxybutanoic acid)], for which the values for the EC50 (on PD-1/PD-L1 interaction; in experiment [1]) were 195 nM and 321 nM, respectively. Moreover, at PD-1/PD-L1, the IC50 was 0.4 nM.

Regarding `Cc1c(COc2nc(OCc3cncc(C#N)c3)c(CNCCO)cc2Cl)cccc1-c1cccc(COc2nc(OCc3cncc(C#N)c3)c(CNCCO)cc2Cl)c1C` [Example 35, 5,5′-((((((2,2′-dimethyl-[1,1′-biphenyl]-3,3′-diyl)bis(methylene))bis(oxy))bis(5-chloro-3-(((2-hydroxyethyl)amino)methyl)pyridine-6,2-diyl))bis(oxy))bis(methylene))dinicotinonitrile], the EC50 at PD-1/PD-L1 interaction was 296 nM; in experiment [1], 264 nM. At PD-1/PD-L1, the IC50 was found to be 15.6 nM.

Regarding `CCCc1cc(CNCCO)c(OCc2cncc(C#N)c2)cc1OCc1cccc(-c2cccc(COc3cc(OCc4cncc(C#N)c4)c(CNCCO)cc3CCC)c2C)c1C` [Example 39, 5,5′-((((((2,2′-dimethyl-[1,1′-biphenyl]-3,3′-diyl)bis(methylene))bis(oxy))bis(6-(((2-hydroxyethyl)amino)methyl)-4-propyl-3,1-phenylene))bis(oxy))bis(methylene))dinicotinonitrile], the EC50 on PD-1/PD-L1 interaction was ≥ 50000 nM; in experiment [1] it was 267 nM. Moreover, the IC50 at PD-1/PD-L1 came out at 167 nM.

As for `Cc1c(COc2nc(OCc3cncc(S(C)(=O)=O)c3)c(CN[C@@](C)(CO)C(=O)O)cc2Br)cccc1-c1cccc(COc2nc(OCc3cncc(S(C)(=O)=O)c3)c(CN[C@@](C)(CO)C(=O)O)cc2Br)c1C` [Example 41, (2S,2′S)-2,2′-((((((2,2′-dimethyl-[1,1′-biphenyl]-3,3′-diyl)bis(methylene))bis(oxy))bis(5-bromo-2-((5-(methylsulfonyl)pyridin-3-yl)methoxy)pyridine-6,3-diyl))bis(methylene))bis(azanediyl))bis(3-hydroxy-2-methylpropanoic acid)], the EC50 is 188 nM on PD-1/PD-L1 interaction and 248 nM in experiment [1]. For the same molecule, the IC50 at PD-1/PD-L1 was found to be 0.2 nM.

In the case of `Cc1c(COc2nc(OCc3cncc(S(C)(=O)=O)c3)c(CNC[C@@H](O)CC(=O)O)cc2Br)cccc1-c1cccc(COc2nc(OCc3cncc(S(C)(=O)=O)c3)c(CNC[C@@H](O)CC(=O)O)cc2Br)c1C` [Example 42, (3S,3′S)-4,4′-((((((2,2′-dimethyl-[1,1′-biphenyl]-3,3′-diyl)bis(methylene))bis(oxy))bis(5-bromo-2-((5-(methylsulfonyl)pyridin-3-yl)methoxy)pyridine-6,3 diyl))bis(methylene))bis(azanediyl))bis(3-hydroxybutanoic acid)], the EC50 was 123 nM on PD-1/PD-L1 interaction and 149 nM in experiment [1]. The IC50 on PD-1/PD-L1 worked out at 0.3 nM.

In the case of `COc1nc(OCc2cccc(-c3cccc(COc4ccc(CN[C@@](C)(CO)C(=O)O)c(OC)n4)c3C)c2C)ccc1CN[C@@](C)(CO)C(=O)O` [Example 61, (2S,2′S)-2,2′-((((((2,2′-dimethyl-[1,1′-biphenyl]-3,3′-diyl)bis(methylene))bis(oxy))bis(2-methoxypyridine-6,3-diyl))bis(methylene))bis(azanediyl))bis(3-hydroxy-2-methylpropanoic acid)], the EC50 is 6780 nM on PD-1/PD-L1 interaction and 200 nM in experiment [1]. Further, the IC50 at PD-1/PD-L1 was determined as 0.7 nM.

Take `Cc1c(COc2cc(OCc3cncc(C#N)c3)c(CNCCO)cc2Cl)cccc1-c1cccc(COc2cc(OCc3cncc(C#N)c3)c(CNCCO)cc2Cl)c1C` [Example 68, 5,5′-((((((2,2′-dimethyl-[1,1′-biphenyl]-3,3′-diyl)bis(methylene))bis(oxy))bis(4-chloro-6-(((2-hydroxyethyl)amino)methyl)-3,1-phenylene))bis(oxy))bis(methylene))dinicotinonitrile]: the EC50 came out at 553 nM at PD-1/PD-L1 interaction and 279 nM in experiment [1]. The IC50 on PD-1/PD-L1 stood at 10.3 nM.

Turning to `Cc1c(-c2ccc(OCCNC[C@@H](O)CC(=O)O)cc2)cccc1-c1cccc(-c2ccc(OCCNC[C@@H](O)CC(=O)O)cc2)c1C` [Example 106, (3S,3′S)-4,4′-((((2′,2″-dimethyl-[1,1′:3′,1″:3″,1′″-quaterphenyl]-4,4′″-diyl)bis(oxy))bis(ethane-2,1-diyl))bis(azanediyl))bis(3-hydroxybutanoic acid)], the figures for the EC50 (at PD-1/PD-L1 interaction; in experiment [1]) were 5270 nM and 110 nM, respectively. In addition, on PD-1/PD-L1, the IC50 is 0.4 nM.

On to `COc1nc(OCc2cccc(-c3cccc(COc4nc(OC)c(CNC[C@@H](O)CC(=O)O)cc4Br)c3C)c2C)c(Br)cc1CNC[C@@H](O)CC(=O)O` [Example 113, (3S,3′S)-4,4′-((((((2,2′-dimethyl-[1,1′-biphenyl]-3,3′-diyl)bis(methylene))bis(oxy))bis(5-bromo-2-methoxypyridine-6,3-diyl))bis(methylene))bis(azanediyl))bis(3-hydroxybutanoic acid)], for which the EC50 at PD-1/PD-L1 interaction was 193 nM; in experiment [1] it was 148 nM. In addition, the IC50 at PD-1/PD-L1 was found to be 0.6 nM.

Consider `COc1nc(OCc2cccc(-c3cccc(COc4nc(OC)c(CNC[C@H](O)CC(=O)O)cc4Br)c3C)c2C)c(Br)cc1CNC[C@H](O)CC(=O)O` [Example 114, (3R,3′R)-4,4′-((((((2,2′-dimethyl-[1,1′-biphenyl]-3,3′-diyl)bis(methylene))bis(oxy))bis(5-bromo-2-methoxypyridine-6,3-diyl))bis(methylene))bis(azanediyl))bis(3-hydroxybutanoic acid)], for which the results for the EC50 (on PD-1/PD-L1 interaction; in experiment [1]) were 186 nM and 140 nM, respectively. Further, the IC50 on PD-1/PD-L1 came to 0.5 nM.

Turning to `Cc1c(COc2nc(OCc3cc(C#N)cc(C#N)c3)c(CNC[C@@H](O)CC(=O)O)cc2Br)cccc1-c1cccc(COc2nc(OCc3cc(C#N)cc(C#N)c3)c(CNC[C@@H](O)CC(=O)O)cc2Br)c1C` [Example 121, (3S,3′S)-4,4′-((((((2,2′-dimethyl-[1,1′-biphenyl]-3,3′-diyl)bis(methylene))bis(oxy))bis(5-bromo-2-((3,5-dicyanobenzyl)oxy)pyridine-6,3-diyl))bis(methylene))bis(azanediyl))bis(3-hydroxybutanoic acid)], the EC50 on PD-1/PD-L1 interaction is 74 nM; in experiment [1], 176 nM. At PD-1/PD-L1, the IC50 was found to be 1.4 nM.
